Reference: the kinase profiling compilation of Christmann-Franck et al. (2016)

Columns and labels:
Assay in all cases: radiometric filter-binding kinase assay, Kinase HotSpot
Conditions in all cases: compound 0.5 µM; ATP 10 µM
CAMK2G (human) = CAMK2G (human) (UniProt Q13555)
RPS6KA3 KD1 KD2 (human) = RPS6KA3 KD1 KD2 (human) (UniProt P51812)
PRKCG (human) = PRKCG (human) (UniProt P05129)
KIT (human) = KIT (human) (UniProt P10721)
[1] = test system: FLT4 (human), P35916 [Q890H]
PAK1 (human) = PAK1 (human) (UniProt Q13153)
CAMK2D (human) = CAMK2D (human) (UniProt Q13557)
CAMK2D (human), sequence (Q13557 whole entry, looked up): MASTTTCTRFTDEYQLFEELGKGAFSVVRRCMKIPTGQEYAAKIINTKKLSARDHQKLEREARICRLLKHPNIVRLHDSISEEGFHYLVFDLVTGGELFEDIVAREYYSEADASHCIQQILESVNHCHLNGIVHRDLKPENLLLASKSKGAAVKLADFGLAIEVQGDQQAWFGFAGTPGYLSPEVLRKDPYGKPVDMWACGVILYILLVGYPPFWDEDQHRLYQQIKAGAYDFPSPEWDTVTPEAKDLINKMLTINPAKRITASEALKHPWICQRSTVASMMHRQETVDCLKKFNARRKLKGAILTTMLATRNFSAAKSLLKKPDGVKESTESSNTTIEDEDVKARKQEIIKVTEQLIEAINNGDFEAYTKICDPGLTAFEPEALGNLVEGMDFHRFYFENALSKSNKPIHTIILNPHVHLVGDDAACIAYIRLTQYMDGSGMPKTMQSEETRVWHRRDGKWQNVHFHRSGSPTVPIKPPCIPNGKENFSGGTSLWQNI

MST1R (human) = MST1R (human) (UniProt Q04912)
EPHB3 (human) = EPHB3 (human) (UniProt P54753)
TEK (human) = TEK (human) (UniProt Q02763)
MYLK (human) = MYLK (human) (UniProt Q15746)
IKBKB (human) = IKBKB (human) (UniProt O14920)
STK39 (human) = STK39 (human) (UniProt Q9UEW8)
RET (human) = RET (human) (UniProt P07949)
FER (human) = FER (human) (UniProt P16591)
CDK1 CCNA2 (human) = CDK1 CCNA2 (human) (UniProt P06493+P20248)
MAPK12 (human) = MAPK12 (human) (UniProt P53778)
CDK2 CCNE1 (human) = CDK2 CCNE1 (human) (UniProt P24941+P24864)
CDK2 CCNE1 (human), sequence (P24864 whole entry, looked up, other chains not shown): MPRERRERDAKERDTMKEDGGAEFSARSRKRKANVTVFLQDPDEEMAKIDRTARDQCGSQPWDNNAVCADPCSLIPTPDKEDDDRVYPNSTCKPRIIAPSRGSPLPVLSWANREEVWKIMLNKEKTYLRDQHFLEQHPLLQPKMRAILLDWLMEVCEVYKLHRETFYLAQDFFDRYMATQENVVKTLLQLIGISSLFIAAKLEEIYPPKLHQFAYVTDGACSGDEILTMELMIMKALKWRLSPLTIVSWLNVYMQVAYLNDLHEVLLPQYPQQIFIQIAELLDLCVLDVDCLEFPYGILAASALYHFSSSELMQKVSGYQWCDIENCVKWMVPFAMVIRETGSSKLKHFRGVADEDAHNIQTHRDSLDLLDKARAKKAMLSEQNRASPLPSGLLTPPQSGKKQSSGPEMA

ROCK2 (human) = ROCK2 (human) (UniProt O75116)
EPHB4 (human) = EPHB4 (human) (UniProt P54760)
MATK (human) = MATK (human) (UniProt P42679)
NEK4 (human) = NEK4 (human) (UniProt P51957)
NEK4 (human), sequence (P51957 whole entry, looked up): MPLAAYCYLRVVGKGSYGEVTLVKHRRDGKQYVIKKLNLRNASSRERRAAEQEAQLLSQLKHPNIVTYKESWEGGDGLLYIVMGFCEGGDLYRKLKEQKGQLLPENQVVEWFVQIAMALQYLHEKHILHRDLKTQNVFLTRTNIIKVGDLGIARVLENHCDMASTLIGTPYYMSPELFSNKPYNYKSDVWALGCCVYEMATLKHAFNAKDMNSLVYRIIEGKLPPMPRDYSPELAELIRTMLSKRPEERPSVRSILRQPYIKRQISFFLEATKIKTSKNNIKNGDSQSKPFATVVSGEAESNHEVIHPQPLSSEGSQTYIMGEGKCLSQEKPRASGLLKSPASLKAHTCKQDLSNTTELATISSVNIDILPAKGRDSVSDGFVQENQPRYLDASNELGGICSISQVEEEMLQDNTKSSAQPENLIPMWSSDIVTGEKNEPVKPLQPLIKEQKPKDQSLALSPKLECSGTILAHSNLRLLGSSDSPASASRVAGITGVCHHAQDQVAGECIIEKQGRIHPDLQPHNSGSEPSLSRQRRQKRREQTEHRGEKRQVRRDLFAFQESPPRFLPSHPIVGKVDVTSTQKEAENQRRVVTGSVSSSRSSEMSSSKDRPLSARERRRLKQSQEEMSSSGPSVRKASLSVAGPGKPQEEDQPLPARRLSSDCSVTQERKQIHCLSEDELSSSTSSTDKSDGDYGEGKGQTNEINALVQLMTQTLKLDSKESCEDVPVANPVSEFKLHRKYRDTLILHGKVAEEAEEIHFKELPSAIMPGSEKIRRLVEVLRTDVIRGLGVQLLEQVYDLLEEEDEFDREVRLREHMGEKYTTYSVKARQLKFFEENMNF

ULK1 (human) = ULK1 (human) (UniProt O75385)
FGFR4 (human) = FGFR4 (human) (UniProt P22455)
NTRK1 (human) = NTRK1 (human) (UniProt P04629)
TEC (human) = TEC (human) (UniProt P42680)
BRSK2 (human) = BRSK2 (human) (UniProt Q8IWQ3)
BRSK2 (human), sequence (Q8IWQ3 whole entry, looked up): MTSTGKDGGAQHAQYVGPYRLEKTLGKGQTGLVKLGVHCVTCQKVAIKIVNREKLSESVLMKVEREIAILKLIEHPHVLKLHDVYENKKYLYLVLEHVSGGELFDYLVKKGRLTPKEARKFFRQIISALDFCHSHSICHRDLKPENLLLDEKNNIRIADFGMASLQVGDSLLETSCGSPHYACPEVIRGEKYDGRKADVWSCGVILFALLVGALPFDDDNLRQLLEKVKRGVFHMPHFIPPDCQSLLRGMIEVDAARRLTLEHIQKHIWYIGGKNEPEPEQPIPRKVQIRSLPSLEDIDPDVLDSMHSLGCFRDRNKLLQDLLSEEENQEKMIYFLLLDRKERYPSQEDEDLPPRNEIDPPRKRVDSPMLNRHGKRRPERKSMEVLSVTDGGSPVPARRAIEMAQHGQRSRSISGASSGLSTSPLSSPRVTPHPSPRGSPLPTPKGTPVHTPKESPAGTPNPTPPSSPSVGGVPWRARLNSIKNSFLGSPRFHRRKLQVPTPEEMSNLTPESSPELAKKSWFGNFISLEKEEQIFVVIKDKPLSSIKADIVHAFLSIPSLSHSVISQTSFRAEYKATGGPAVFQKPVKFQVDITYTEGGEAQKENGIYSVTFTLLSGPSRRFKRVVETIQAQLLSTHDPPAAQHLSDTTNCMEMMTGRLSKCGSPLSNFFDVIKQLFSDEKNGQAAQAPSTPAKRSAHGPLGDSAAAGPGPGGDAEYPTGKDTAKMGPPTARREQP

AKT1 (human) = AKT1 (human) (UniProt P31749)
RPS6KA6 KD1 KD2 (human) = RPS6KA6 KD1 KD2 (human) (UniProt Q9UK32)
HIPK3 (human) = HIPK3 (human) (UniProt Q9H422)
HIPK3 (human), sequence (Q9H422 whole entry, looked up): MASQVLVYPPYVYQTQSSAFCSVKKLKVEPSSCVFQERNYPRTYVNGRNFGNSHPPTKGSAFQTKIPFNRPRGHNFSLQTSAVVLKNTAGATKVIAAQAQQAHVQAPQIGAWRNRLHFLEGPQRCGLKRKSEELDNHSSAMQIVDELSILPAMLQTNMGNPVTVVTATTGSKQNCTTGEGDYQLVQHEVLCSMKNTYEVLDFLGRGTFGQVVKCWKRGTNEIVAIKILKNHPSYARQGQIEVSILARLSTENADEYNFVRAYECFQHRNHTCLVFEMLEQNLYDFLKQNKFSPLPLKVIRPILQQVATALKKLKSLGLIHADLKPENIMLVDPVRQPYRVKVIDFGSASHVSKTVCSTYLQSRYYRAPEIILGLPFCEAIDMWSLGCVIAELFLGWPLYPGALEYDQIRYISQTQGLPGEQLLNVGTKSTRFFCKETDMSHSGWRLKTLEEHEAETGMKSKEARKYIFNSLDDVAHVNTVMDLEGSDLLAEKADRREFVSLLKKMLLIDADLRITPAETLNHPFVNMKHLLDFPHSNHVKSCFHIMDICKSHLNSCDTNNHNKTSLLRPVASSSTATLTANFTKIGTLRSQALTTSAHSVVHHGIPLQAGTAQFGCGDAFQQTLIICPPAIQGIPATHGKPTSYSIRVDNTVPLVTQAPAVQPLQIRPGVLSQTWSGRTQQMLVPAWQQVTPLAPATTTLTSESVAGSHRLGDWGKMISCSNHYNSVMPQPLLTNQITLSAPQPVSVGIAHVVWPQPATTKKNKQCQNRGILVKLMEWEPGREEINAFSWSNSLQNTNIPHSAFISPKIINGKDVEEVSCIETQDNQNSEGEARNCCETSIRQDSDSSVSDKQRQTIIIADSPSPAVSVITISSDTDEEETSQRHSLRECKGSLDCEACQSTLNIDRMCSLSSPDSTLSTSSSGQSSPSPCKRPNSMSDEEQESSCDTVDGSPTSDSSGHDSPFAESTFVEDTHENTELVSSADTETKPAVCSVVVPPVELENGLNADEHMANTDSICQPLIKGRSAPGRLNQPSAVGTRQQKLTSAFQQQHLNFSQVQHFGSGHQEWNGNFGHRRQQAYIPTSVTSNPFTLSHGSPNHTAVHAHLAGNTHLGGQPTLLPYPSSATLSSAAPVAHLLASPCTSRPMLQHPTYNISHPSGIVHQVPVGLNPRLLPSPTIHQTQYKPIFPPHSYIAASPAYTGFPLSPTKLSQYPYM

BLK (human) = BLK (human) (UniProt P51451)
ADRBK2 (human) = ADRBK2 (human) (UniProt P35626)
EPHA4 (human) = EPHA4 (human) (UniProt P54764)
MAP3K7 TAB1 (human) = MAP3K7 TAB1 (human) (UniProt O43318+Q15750)
DAPK1 (human) = DAPK1 (human) (UniProt P53355)
DAPK3 (human) = DAPK3 (human) (UniProt O43293)
INSR (human) = INSR (human) (UniProt P06213)
INSR (human), sequence (P06213 whole entry, looked up): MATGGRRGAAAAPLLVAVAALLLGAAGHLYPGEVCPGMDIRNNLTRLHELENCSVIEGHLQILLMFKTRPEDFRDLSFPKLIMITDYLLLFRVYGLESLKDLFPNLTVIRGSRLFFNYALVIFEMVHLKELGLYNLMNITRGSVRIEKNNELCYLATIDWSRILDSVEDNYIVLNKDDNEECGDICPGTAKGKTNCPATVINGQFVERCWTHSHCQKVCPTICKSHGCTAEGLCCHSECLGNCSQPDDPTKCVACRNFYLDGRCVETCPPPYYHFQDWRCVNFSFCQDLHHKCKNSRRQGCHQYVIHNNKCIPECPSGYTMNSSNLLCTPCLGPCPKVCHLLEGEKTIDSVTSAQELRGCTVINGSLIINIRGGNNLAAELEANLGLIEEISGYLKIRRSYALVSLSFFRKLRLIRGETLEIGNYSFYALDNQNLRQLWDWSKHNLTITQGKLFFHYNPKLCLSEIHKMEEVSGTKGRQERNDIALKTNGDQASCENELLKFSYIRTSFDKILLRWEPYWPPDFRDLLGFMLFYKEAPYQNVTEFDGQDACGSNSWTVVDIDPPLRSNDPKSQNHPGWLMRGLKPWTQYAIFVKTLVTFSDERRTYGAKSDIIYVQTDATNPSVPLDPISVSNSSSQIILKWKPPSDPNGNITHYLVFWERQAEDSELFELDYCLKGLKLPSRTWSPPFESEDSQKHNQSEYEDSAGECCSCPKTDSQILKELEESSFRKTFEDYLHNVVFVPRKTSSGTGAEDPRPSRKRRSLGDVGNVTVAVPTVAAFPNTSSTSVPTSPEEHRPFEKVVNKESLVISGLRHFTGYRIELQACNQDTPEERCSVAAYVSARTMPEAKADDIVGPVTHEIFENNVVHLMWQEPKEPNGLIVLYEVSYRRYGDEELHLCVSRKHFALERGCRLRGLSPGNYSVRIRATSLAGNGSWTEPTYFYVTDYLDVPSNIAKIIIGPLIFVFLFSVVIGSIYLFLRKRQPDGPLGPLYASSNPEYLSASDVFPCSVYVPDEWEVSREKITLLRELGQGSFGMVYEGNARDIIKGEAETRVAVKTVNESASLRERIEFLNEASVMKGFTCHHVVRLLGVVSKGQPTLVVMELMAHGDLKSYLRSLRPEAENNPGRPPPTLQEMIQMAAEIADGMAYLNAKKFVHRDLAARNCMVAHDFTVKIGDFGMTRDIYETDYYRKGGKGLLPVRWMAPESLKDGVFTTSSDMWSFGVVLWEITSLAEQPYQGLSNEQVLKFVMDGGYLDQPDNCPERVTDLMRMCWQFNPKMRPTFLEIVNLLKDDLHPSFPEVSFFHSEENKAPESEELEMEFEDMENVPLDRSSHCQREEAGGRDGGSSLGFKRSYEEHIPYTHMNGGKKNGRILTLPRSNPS

PIM2 (human) = PIM2 (human) (UniProt Q9P1W9)
ACVR1B (human) = ACVR1B (human) (UniProt P36896)
NEK1 (human) = NEK1 (human) (UniProt Q96PY6)
SLK (human) = SLK (human) (UniProt Q9H2G2)
EPHA2 (human) = EPHA2 (human) (UniProt P29317)

Cc1cncc2cccc(S(=O)(=O)N3CCCN(C(=O)CN)C[C@H]3C)c12
residual activity (CAMK2G (human)): 94% | residual activity (RPS6KA3 KD1 KD2 (human)): 91.8% | residual activity (PRKCG (human)): 101% | residual activity (KIT (human)): 92.9% | residual activity [1]: 113% | residual activity (PAK1 (human)): 98.1% | residual activity (CAMK2D (human)): 108% | residual activity (MST1R (human)): 99.3% | residual activity (EPHB3 (human)): 99.6% | residual activity (TEK (human)): 98.6% | residual activity (MYLK (human)): 103% | residual activity (IKBKB (human)): 109% | residual activity (STK39 (human)): 95.3% | residual activity (RET (human)): 94.4% | residual activity (FER (human)): 66% | residual activity (CDK1 CCNA2 (human)): 89.2% | residual activity (MAPK12 (human)): 107% | residual activity (CDK2 CCNE1 (human)): 92.3% | residual activity (ROCK2 (human)): 3.22% | residual activity (EPHB4 (human)): 85.1% | residual activity (MATK (human)): 94.4% | residual activity (NEK4 (human)): 95.3% | residual activity (ULK1 (human)): 51.8% | residual activity (FGFR4 (human)): 79.5% | residual activity (NTRK1 (human)): 100% | residual activity (TEC (human)): 117% | residual activity (BRSK2 (human)): 85.4% | residual activity (AKT1 (human)): 104% | residual activity (RPS6KA6 KD1 KD2 (human)): 105% | residual activity (HIPK3 (human)): 105% | residual activity (BLK (human)): 97.7% | residual activity (ADRBK2 (human)): 95% | residual activity (EPHA4 (human)): 99.9% | residual activity (MAP3K7 TAB1 (human)): 94.9% | residual activity (DAPK1 (human)): 97.9% | residual activity (DAPK3 (human)): 90.4% | residual activity (INSR (human)): 88.9% | residual activity (PIM2 (human)): 104% | residual activity (ACVR1B (human)): 100% | residual activity (NEK1 (human)): 100% | residual activity (SLK (human)): 90.4%

CC(C)(C)c1cc(C=C(C#N)C#N)cc(Br)c1O
residual activity (CAMK2G (human)): 104% | residual activity (RPS6KA3 KD1 KD2 (human)): 92.2% | residual activity (PRKCG (human)): 90.4% | residual activity (KIT (human)): 97.9% | residual activity [1]: 102% | residual activity (PAK1 (human)): 89.9% | residual activity (CAMK2D (human)): 96% | residual activity (EPHA2 (human)): 105% | residual activity (MST1R (human)): 105% | residual activity (EPHB3 (human)): 107% | residual activity (TEK (human)): 97.9% | residual activity (MYLK (human)): 90.6% | residual activity (IKBKB (human)): 95.7% | residual activity (STK39 (human)): 87.6% | residual activity (RET (human)): 98.2% | residual activity (FER (human)): 100% | residual activity (CDK1 CCNA2 (human)): 87.8% | residual activity (MAPK12 (human)): 102% | residual activity (CDK2 CCNE1 (human)): 77.6% | residual activity (ROCK2 (human)): 95.6% | residual activity (MATK (human)): 102% | residual activity (NEK4 (human)): 93.7% | residual activity (ULK1 (human)): 88.2% | residual activity (FGFR4 (human)): 98% | residual activity (NTRK1 (human)): 100% | residual activity (TEC (human)): 171% | residual activity (BRSK2 (human)): 94.5% | residual activity (AKT1 (human)): 108% | residual activity (RPS6KA6 KD1 KD2 (human)): 101% | residual activity (HIPK3 (human)): 98.2% | residual activity (BLK (human)): 97.9% | residual activity (ADRBK2 (human)): 98% | residual activity (EPHA4 (human)): 94.7% | residual activity (MAP3K7 TAB1 (human)): 87.9% | residual activity (DAPK1 (human)): 85.9% | residual activity (DAPK3 (human)): 96.4% | residual activity (INSR (human)): 105% | residual activity (PIM2 (human)): 115% | residual activity (ACVR1B (human)): 108% | residual activity (NEK1 (human)): 97.7% | residual activity (SLK (human)): 94.7%

Cc1cccc(-c2nc(C(C)(C)C)[nH]c2-c2ccc3c(c2)OCO3)n1
residual activity (CAMK2G (human)): 85.5% | residual activity (RPS6KA3 KD1 KD2 (human)): 82.4% | residual activity (PRKCG (human)): 107% | residual activity (KIT (human)): 93.6% | residual activity [1]: 99.8% | residual activity (PAK1 (human)): 96.3% | residual activity (CAMK2D (human)): 100% | residual activity (EPHA2 (human)): 99.2% | residual activity (MST1R (human)): 101% | residual activity (EPHB3 (human)): 103% | residual activity (TEK (human)): 95.2% | residual activity (MYLK (human)): 105% | residual activity (IKBKB (human)): 105% | residual activity (STK39 (human)): 107% | residual activity (RET (human)): 103% | residual activity (FER (human)): 85.4% | residual activity (CDK1 CCNA2 (human)): 96.7% | residual activity (MAPK12 (human)): 95.7% | residual activity (CDK2 CCNE1 (human)): 95.6% | residual activity (ROCK2 (human)): 104% | residual activity (EPHB4 (human)): 91.4% | residual activity (MATK (human)): 100% | residual activity (NEK4 (human)): 94.9% | residual activity (ULK1 (human)): 82.7% | residual activity (FGFR4 (human)): 73.8% | residual activity (NTRK1 (human)): 96.5% | residual activity (TEC (human)): 123% | residual activity (BRSK2 (human)): 99.3% | residual activity (AKT1 (human)): 94.6% | residual activity (RPS6KA6 KD1 KD2 (human)): 107% | residual activity (BLK (human)): 98.5% | residual activity (ADRBK2 (human)): 96.3% | residual activity (EPHA4 (human)): 97.3% | residual activity (MAP3K7 TAB1 (human)): 96.3% | residual activity (DAPK1 (human)): 102% | residual activity (DAPK3 (human)): 97% | residual activity (INSR (human)): 87.6% | residual activity (PIM2 (human)): 99.7% | residual activity (ACVR1B (human)): 31% | residual activity (NEK1 (human)): 78.9% | residual activity (SLK (human)): 108%

CS(=O)(=O)CCNCc1ccc(-c2ccc3ncnc(Nc4ccc(OCc5cccc(F)c5)c(Cl)c4)c3c2)o1
residual activity (CAMK2G (human)): 111% | residual activity (RPS6KA3 KD1 KD2 (human)): 105% | residual activity (PRKCG (human)): 79.3% | residual activity (KIT (human)): 98.4% | residual activity [1]: 93.3% | residual activity (PAK1 (human)): 110% | residual activity (CAMK2D (human)): 92.5% | residual activity (EPHA2 (human)): 99% | residual activity (MST1R (human)): 92.2% | residual activity (TEK (human)): 93.2% | residual activity (MYLK (human)): 90.7% | residual activity (IKBKB (human)): 81% | residual activity (STK39 (human)): 100% | residual activity (RET (human)): 99.8% | residual activity (FER (human)): 94.6% | residual activity (CDK1 CCNA2 (human)): 101% | residual activity (MAPK12 (human)): 95% | residual activity (CDK2 CCNE1 (human)): 98.8% | residual activity (ROCK2 (human)): 92.7% | residual activity (EPHB4 (human)): 94.1% | residual activity (MATK (human)): 75.9% | residual activity (NEK4 (human)): 98.1% | residual activity (ULK1 (human)): 95.4% | residual activity (FGFR4 (human)): 96.6% | residual activity (NTRK1 (human)): 99.2% | residual activity (TEC (human)): 101% | residual activity (BRSK2 (human)): 106% | residual activity (AKT1 (human)): 95.6% | residual activity (RPS6KA6 KD1 KD2 (human)): 108% | residual activity (HIPK3 (human)): 99.1% | residual activity (BLK (human)): 95.9% | residual activity (ADRBK2 (human)): 96.7% | residual activity (EPHA4 (human)): 101% | residual activity (MAP3K7 TAB1 (human)): 89% | residual activity (DAPK1 (human)): 107% | residual activity (DAPK3 (human)): 97.4% | residual activity (INSR (human)): 105% | residual activity (PIM2 (human)): 102% | residual activity (ACVR1B (human)): 98.7% | residual activity (NEK1 (human)): 71.8% | residual activity (SLK (human)): 85.1%
